Measurements taken from PubChem BioAssay (NCI).
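In this assay, cells in 96-well plates receive the compound at five concentrations for 48 hours. Endpoints are linearly interpolated between the surrounding concentrations. The concentration for 50% growth inhibition is given as GI50. TGI: concentration producing complete growth inhibition.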

Columns and labels:
Test in all cases: NCI tumour cell line growth inhibition, 48 h
BT-549 breast = system: BT-549 breast
MDA-MB-435 = system: MDA-MB-435
HOP-18 NSCLC = system: HOP-18 NSCLC
SN12K1 renal = system: SN12K1 renal
P388/ADR leukemia = system: P388/ADR leukemia
P388 leukemia = system: P388 leukemia
RXF-631 renal = system: RXF-631 renal

`O=[N+]([O-])c1ccc(N/N=C\c2ccc(O)cc2O)nc1` was tested, and the GI50 (BT-549 breast) was 6.06 µM, the TGI (BT-549 breast) was over 100 µM and the GI50 (MDA-MB-435) was 3.14 µM. For the same compound, the TGI (MDA-MB-435) was over 100 µM.

Work on `CSc1nc(NC2OC(CO)C(O)C(O)C2O)c(N)c(=O)[nH]1` (stereo not drawn) yielded a TGI (HOP-18 NSCLC) of over 100 µM, a TGI (SN12K1 renal) of over 100 µM and a TGI (P388/ADR leukemia) of over 100 µM. For the same compound, the TGI (P388 leukemia) was over 100 µM.

In the case of `COC(=O)C(Cc1cc(OC)c(OC)c(OC)c1)(NC(=O)c1ccccc1)P(=O)(OC)OC` (stereo not drawn), the TGI (RXF-631 renal) is reported as over 100 µM.

For `COc1cc(/C=C2\CCCC3=C2N=C2SC=NN2C3c2cc(OC)c(OC)c(OC)c2)cc(OC)c1OC` (stereo not drawn), the GI50 (MDA-MB-435) was 2.04 µM and the TGI (MDA-MB-435) was 5.17 µM.

`Nc1[nH]nc2c1Cc1c(n(Cc3ccc(Cl)cc3)c3ccccc13)C(=O)N2` showed a TGI (BT-549 breast) of 36.6 µM and a TGI (MDA-MB-435) of 16.5 µM.
